From publication PMC6132687, “Stem cells are the most sensitive screening tool to identify toxicity of GATA4-targeted novel small-molecule compounds” (Archives of Toxicology, 2018)
pIC50: −log10 of the molar value.

How the values were obtained:
[1] = tested on: GATA4–NKX2-5 transcriptional synergy; test: Luciferase reporter assay of GATA4–NKX2-5 synergistic gene activation in COS-1 cells; type: cell-based, African green monkey; settings: 24 h treatment, normalized to DMSO
Experimental: COS-1 cells were used to investigate the compound effects on GATA4–NKX2-5 synergistic gene activation using a luciferase reporter assay (Kinnunen et al. [2015]). Toxicity profiling was carried out in eight cell types: the H9c2 myoblast cell line, NRVCs, CFs, mESCs, MEFs, mESC derivatives from day 5 embryoid bodies (D5EBs), hiPSCs and hiPSC-CMs. All cell cultures were maintained at 37 °C in a humidified atmosphere of 5% carbon dioxide (CO2) and the regular growth medium was used for compound exposures. Cell culture methods and cardiomyocyte differentiation from human pluripotent stem cells are described in Supplementary Information.
The empty expression plasmid MT2 (pMT2) and mouse Gata4 expressing pMT2-Gata4 plasmids were gifts from D. B. Wilson (Department of Pediatrics, St. Louis Children’s Hospital) (Arceci et al. [1993]). The luciferase reporter plasmid pGL3-3xHA containing three Nkx2-5 high-affinity binding sites has been described previously (Kinnunen et al. [2015]). To create mouse Nkx2-5 expressing pMT2-Nkx2-5, the cDNA was cloned from pFLCI-Nkx2-5 (clone D330001C20, Imagenes), which was a kind gift from R. Kerkelä (University of Oulu, Finland), with primers containing the EcoRI restriction site (forward: 5′-[…]-3′ and reverse 5′-[…]-3′) and ligated to pMT2 EcoRI site. The correct clone was identified by digestion with specific restriction enzymes and the sequence was verified by DNA sequencing (DNA Sequencing and Genomics Laboratory, Institute of Biotechnology, University of Helsinki, Finland).
COS-1 cells grown on 96-well plates were transfected with the luciferase reporter plasmid pGL3-3xHA (100 ng/well) and equal amounts of expression vectors pMT2-Gata4 and pMT2-Nkx2-5 (total of 50 ng/well) using Fugene 6 (Promega) at a reagent:DNA ratio of 3:1. Cells transfected with either pMT2, pMT2-Gata4 or pMT2-Nkx2-5 were used to confirm synergistic transactivation of the reporter gene in all experiments. After 6 h of transfection, the cells were treated with compounds or vehicle (0.1% dimethyl sulfoxide, DMSO) and the luminescence was measured 24 h later using Neolite Reporter Gene Assay System (PerkinElmer, Turku, Finland) according to manufacturer’s instructions and Victor2 plate reader (PerkinElmer, Turku, Finland). Each compound was tested in three technical replicates in at least two independent experiments.
A luciferase reporter assay with an artificial promoter containing three high-affinity binding sites for NKX2-5 was used to evaluate the effects of the compounds on GATA4–NKX2-5 transcriptional synergy (Kinnunen et al. [2015]). We have previously shown that while GATA4 alone induces only minimal activation of this promoter, it strongly potentiates NKX2-5-mediated transactivation (Kinnunen et al. [2015]; Välimäki et al. [2017]).

hiPSCs = test: MTT assay in hiPSCs; type: cell-based, human; settings: for pIC50: Homo sapiens, 24-h exposure, read-out: IC50 (hiPSC viability)
Experimental: The cells were exposed to the test compounds for 24 h and cytotoxicity was quantified with MTT and LDH assays as described previously (Talman et al. [2011]). For the determination of cell membrane integrity, 50 µl of medium from each well was transferred onto a new 96-well plate followed by addition of 50 µl of substrate solution containing 1.3 mM β-nicotinamide adenine dinucleotide, 660 µM iodonitrotetrazolium, 54 mM L(+)-lactic acid, 280 µM phenazine methosulphate and 0.2 M Tris–HCl (pH 8.0). After a 30-min incubation, the reaction was stopped by adding 50 µl of 1 M acetic acid to each well and absorbance was measured at 490 nm using Victor2 plate reader (PerkinElmer, Turku, Finland). Spontaneous LDH release was measured from untreated cells, maximal LDH release from cells lysed with 0.9% Triton X-100 and background absorbance was measured from wells without cells. After background extraction, cytotoxicity was calculated as follows: cytotoxicity (%) = [(sample − spontaneous LDH release)/(maximal LDH release − spontaneous LDH release)] × 100. For quantification of metabolic activity, 3-(4,5-dimethylthiazol-2-yl)-2,5-diphenyltetrazolium bromide (MTT) was added to the cells at a final concentration of 0.5 mg/ml followed by 2 h incubation in cell culture conditions. The medium was then aspirated and formazan crystals were solubilized in DMSO. Absorbance was measured at 550 nm and absorbance at 650 nm was subtracted as background. […]
Human pluripotent stem cells (hiPSCs): The iPS(IMR90)-4 line (Yu et al. 2007) was purchased from WiCell (Madison, Wisconsin, USA). The cells were cultured in Essential 8 ™ medium (E8) on 6-well plates coated with Matrigel® (1:50) and passaged 1:15 approximately every four days. The cells were dissociated using Versene®, resuspended in E8 containing 10 µM ROCK inhibitor (Y-27632) and seeded at 10,000 cells/well (cytotoxicity assays) or 5,000 cells/well (high-content imaging) in Matrigel®-coated 96-well plates. The cells were incubated overnight in standard conditions prior to compound addition. […]
1640 without glucose with B-27 supplement in order to purify cardiomyocytes. From day 15 onwards the cells were maintained in RPMI 1640 supplemented with B-27 (RB+ins). Beating hiPSC-CMs were dissociated between days 15 and 22 by incubating them in cell dissociation solution containing 40% enzyme-free cell dissociation buffer, 40% RPMI 1640 and 20% trypsin-EDTA (final trypsin concentration 0.01%) for 7–8 min, whereafter the cells were collected and trypsin was inactivated in RB+ins supplemented with 10% FBS. After centrifugation the cells were suspended in RB+ins with 10% FBS containing 10 µM ROCK inhibitor and seeded at 15,000 cells/well (cytotoxicity assays) or 20,000 cells/well (high content analysis) in gelatin-coated 96-well plates. The cells were let to attach for 2 days at 37 °C in standard conditions, whereafter the compounds were added in RB+ins. In general, the differentiation yielded an almost pure (>95%) cardiomyocyte culture.
Syntheses and characterization of compounds
Materials and general procedures. All reagents were acquired from Sigma-Aldrich (Schnelldorf, Germany) and Enamine (Kiev, Ukraine), and were used without further purification. All reactions in anhydrous solvents were conducted in oven-dried glassware under anhydrous argon. Thin-layer chromatography (TLC) was performed using Silica Gel 60 F254 (Merck) and Silica Gel 60 NH2 F254s aluminium sheets (Merck), visualized by UV illumination and stained with ninhydrin in EtOH (1.5% w/v). Microwave reactions were performed with a Biotage Initiator+ Robot Eight microwave (Uppsala, Sweden). Column chromatography was performed with an automated high performance flash chromatography Biotage Sp4-system or with a Isolera Spektra One-system (Uppsala, Sweden) using a 0.1-mm path length flow cell UV-detector/recorder module (fixed wavelength 254 nm) for the […] or a variable UV-VIS (200-800 nm) photodiode array detector for the Isolera Spektra One- […]

CCN(CC)c1ccc(NC(=O)c2c(-c3ccccc3)noc2C)cc1 [3i-1000]
effect on GATA4- and NKX2-5-induced gene activation (luciferase reporter activity) [1]: inhibitory effect | pIC50 (hiPSCs): 5.84 | reduction in cell viability (hiPSCs; hiPSCs, 24 h, at ≥ 3 µM): 93–94%

CCN(CC)c1ccc(NC(=O)c2cc(C)oc2-c2ccccc2)cc1 [3i-1148]
effect on GATA4- and NKX2-5-induced gene activation (luciferase reporter activity) [1]: inhibitory effect | pIC50 (hiPSCs): 6.52 | sensitivity of cell type to compound (viability) (hiPSCs; hiPSCs, 24 h): sensitive

CCN(CC)c1ccc(NC(=O)c2c(C)noc2-c2cc(C)on2)cc1 [3i-1047]
effect on GATA4- and NKX2-5-induced gene activation (luciferase reporter activity) [1]: only a weak effect | reduction in viability (hiPSCs; hiPSCs, 24 h, 30 µM): 38–45%

CCC(=O)N(Cc1ccc(N(CC)CC)cc1)c1c(-c2ccccc2)noc1C [3i-1120]
effect on GATA4- and NKX2-5-induced gene activation (luciferase reporter activity) [1]: inhibitory effect | pIC50 (hiPSCs): 6.22 | sensitivity of cell type to compound (viability) (hiPSCs; hiPSCs, 24 h): sensitive

COc1ccc(-c2cc(N)nn2C(=O)c2c(-c3ccccc3)noc2C)cc1 [3i-1229]
effect on GATA4- and NKX2-5-induced gene activation (luciferase reporter activity) [1]: only a weak effect | pIC50 (hiPSCs): 5.68 | sensitivity of cell type to compound (viability) (hiPSCs; hiPSCs, 24 h): sensitive
